This note sets out measurements from patent publication US20080045506A1 (GLAXO GROUP LIMITED, priority 2004, published 2008).

This experiment addresses T1, histamine H3 receptor (Homo sapiens, UniProt Q9Y5N1).
T1 construct: expressed in transfected cells; host or cells: CHO K1 cells (pSwitch/pGene GeneSwitch system, mifepristone-induced), clone 3H3; membranes
The experiment is described as follows: Histamine H3 functional antagonist assay (method B). The class given is biochemical. To be noted: [35S]-GTPγS SPA, membrane prepared from cultured H3 cells, histamine at EC80, averages of a number of experiments, read-out: functional pKi (fpKi), antagonism (converted). The text has this:
A membrane preparation containing histamine H3 receptors may be prepared in accordance with the following procedures:
(i) Generation of Histamine H3 Cell Line
DNA encoding the human histamine H3 gene (Huvar, A. et al. (1999) Mol. Pharmacol. 55(6), 1101-1107) was cloned into a holding vector, pcDNA3.1 TOPO (InVitrogen) and its cDNA was isolated from this vector by restriction digestion of plasmid DNA with the enzymes BamH1 and Not-1 and ligated into the inducible expression vector pGene (InVitrogen) digested with the same enzymes. The GeneSwitch™ system (a system where in transgene expression is switched off in the absence of an inducer and switched on in the presence of an inducer) was performed as described in U.S. Pat. Nos. 5,364,791; 5,874,534; and 5,935,934. Ligated DNA was transformed into competent DH5α E. coli host bacterial cells and plated onto Luria Broth (LB) agar containing Zeocin™ (an antibiotic which allows the selection of cells expressing the sh ble gene which is present on pGene and pSwitch) at 50 μg ml^−1. Colonies containing the re-ligated plasmid were identified by restriction analysis. DNA for transfection into mammalian cells was prepared from 250 ml cultures of the host bacterium containing the pGeneH3 plasmid and isolated using a DNA preparation kit (Qiagen Midi-Prep) as per manufacturers guidelines (Qiagen).
CHO K1 cells previously transfected with the pSwitch regulatory plasmid (InVitrogen) were seeded at 2×10e6 cells per T75 flask in Complete Medium, containing Hams F12 (GIBCOBRL, Life Technologies) medium supplemented with 10% v/v dialysed foetal bovine serum, L-glutamine, and hygromycin (100 μg ml^−1), 24 hours prior to use. Plasmid DNA was transfected into the cells using Lipofectamine plus according to the manufacturers guidelines (InVitrogen). 48 hours post transfection cells were placed into complete medium supplemented with 500 μg ml^−1 Zeocin™.
10-14 days post selection 10 nM Mifepristone (InVitrogen), was added to the culture medium to induce the expression of the receptor. 18 hours post induction cells were detached from the flask using ethylenediamine tetra-acetic acid (EDTA; 1:5000; InVitrogen), following several washes with phosphate buffered saline pH 7.4 and resuspended in Sorting Medium containing Minimum Essential Medium (MEM), without phenol red, and supplemented with Earles salts and 3% Foetal Clone II (Hyclone). Approximately 1×10e7 cells were examined for receptor expression by staining with a rabbit polyclonal antibody, 4a, raised against the N-terminal domain of the histamine H3 receptor, incubated on ice for 60 minutes, followed by two washes in sorting medium. Receptor bound antibody was detected by incubation of the cells for 60 minutes on ice with a goat anti rabbit antibody, conjugated with Alexa 488 fluorescence marker (Molecular Probes). Following two further washes with Sorting Medium, cells were filtered through a 50 μm Filcon™ (BD Biosciences) and then analysed on a FACS Vantage SE Flow Cytometer fitted with an Automatic Cell Deposition Unit. Control cells were non-induced cells treated in a similar manner. Positively stained cells were sorted as single cells into 96-well plates, containing Complete Medium containing 500 μg ml^−1 Zeocin™ and allowed to expand before reanalysis for receptor expression via antibody and ligand binding studies. One clone, 3H3, was selected for membrane preparation.
(ii) Membrane Preparation from Cultured Cells
All steps of the protocol are carried out at 4° C. and with pre-cooled reagents. The cell pellet is resuspended in 10 volumes of homogenisation buffer (50 mM N-2-hydroxyethylpiperazine-N′-2-ethanesulfonic acid (HEPES), 1 mM ethylenediamine tetra-acetic acid (EDTA), pH 7.4 with KOH, supplemented with 10e-6M leupeptin (acetyl-leucyl-leucyl-arginal; Sigma L2884), 25 μg/ml bacitracin (Sigma B0125), 1 mM phenylmethylsulfonyl fluoride (PMSF) and 2×10e-6M pepstain A (Sigma)). […]
On the technique in general: GTPγS resists hydrolysis and so accumulates on activated G proteins.

SMILES strings stand for the structures. Where a name gives a salt, the structure may show the parent alone.

T1 sequence (Q9Y5N1 whole entry): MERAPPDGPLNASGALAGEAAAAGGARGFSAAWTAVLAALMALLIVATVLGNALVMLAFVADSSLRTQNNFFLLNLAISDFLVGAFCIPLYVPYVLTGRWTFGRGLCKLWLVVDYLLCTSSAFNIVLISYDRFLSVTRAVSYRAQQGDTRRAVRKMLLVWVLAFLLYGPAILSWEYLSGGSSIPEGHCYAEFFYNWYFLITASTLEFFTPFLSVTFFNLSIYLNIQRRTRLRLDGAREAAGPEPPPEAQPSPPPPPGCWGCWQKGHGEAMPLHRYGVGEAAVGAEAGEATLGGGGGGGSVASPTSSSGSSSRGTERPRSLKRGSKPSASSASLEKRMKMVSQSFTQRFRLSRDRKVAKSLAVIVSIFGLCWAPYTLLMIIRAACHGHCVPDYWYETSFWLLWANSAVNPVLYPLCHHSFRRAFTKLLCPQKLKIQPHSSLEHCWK

With `Cc1noc(-c2ccc(N3CCC(C(=O)N4CCCN(C5CCC5)CC4)C3)cc2)n1` (racemic) [Example E18, (R,S)-1-Cyclobutyl-4-({1-[4-(3-methyl-1,2,4-oxadiazol-5-yl)phenyl]-3-pyrrolidinyl}carbonyl)hexahydro-1H-1,4-diazepine], the Ki was at most 0.316 nM.
The value for `Cc1ccc2cc(N3CCC(C(=O)N4CCCN(C5CCC5)CC4)C3)ccc2n1` (racemic) [Example E19, (R,S)-6-{3-[(4-Cyclobutylhexahydro-1H-1,4-diazepin-1-yl)carbonyl]-1-pyrrolidinyl}-2-methylquinoline] was below 10 nM; that for `Cc1noc(-c2ccc(N3CCC(C(=O)N4CCCN(C5CCC5)CC4)C3)c(F)c2)n1` (racemic) [Example E20, (R,S)-1-Cyclobutyl-4-({1-[2-fluoro-4-(3-methyl-1,2,4-oxadiazol-5-yl)phenyl]-3-pyrrolidinyl}carbonyl)hexahydro-1H-1,4-diazepine] was at most 0.316 nM; that for `CC(=O)c1ccc(N2CCC(C(=O)N3CCCN(C4CCC4)CC3)C2)cc1` (racemic) [Example E21, (R,S)-1-(4-{3-[(4-Cyclobutylhexahydro-1H-1,4-diazepin-1-yl)carbonyl]-1-pyrrolidinyl}phenyl)ethanone] was at most 0.316 nM.
The value for `Cc1noc(-c2ccc(N3CC[C@@H](C(=O)N4CCCN(C5CCC5)CC4)C3)cc2)n1` (single isomer, unassigned) [Example E18A, hydrochloride] was at most 0.316 nM; that for `Cc1noc(-c2ccc(N3CC[C@H](C(=O)N4CCCN(C5CCC5)CC4)C3)cc2)n1` (single isomer, unassigned) [Example E18B, hydrochloride] was at most 0.316 nM.
With `Cc1ccc2cc(N3CC[C@@H](C(=O)N4CCCN(C5CCC5)CC4)C3)ccc2n1` (single isomer, unassigned) [Example E19A, hydrochloride], the Ki is below 10 nM.
The value for `Cc1ccc2cc(N3CC[C@H](C(=O)N4CCCN(C5CCC5)CC4)C3)ccc2n1` (single isomer, unassigned) [Example E19B, hydrochloride] was at most 0.316 nM; that for `Cc1noc(-c2ccc(N3CC[C@@H](C(=O)N4CCCN(C5CCC5)CC4)C3)c(F)c2)n1` (single isomer, unassigned) [Example E20A, hydrochloride] was below 10 nM; that for `Cc1noc(-c2ccc(N3CC[C@H](C(=O)N4CCCN(C5CCC5)CC4)C3)c(F)c2)n1` (single isomer, unassigned) [Example E20B, hydrochloride] was at most 0.316 nM.
With `CC(=O)c1ccc(N2CC[C@@H](C(=O)N3CCCN(C4CCC4)CC3)C2)cc1` (single isomer, unassigned) [Example E21A, hydrochloride], the Ki was below 10 nM.
The value for `CC(=O)c1ccc(N2CC[C@H](C(=O)N3CCCN(C4CCC4)CC3)C2)cc1` (single isomer, unassigned) [Example E21B, hydrochloride] was at most 0.316 nM; that for `CC(=O)c1ccc(N2CC[C@H](C(=O)N3CCN(C(C)C)CC3)C2)cc1` [Example E2, 1-[4-((3S)-3-{[4-(1-Methylethyl)-1-piperazinyl]carbonyl}-1-pyrrolidinyl)phenyl]ethanone] was at most 0.316 nM.
Regarding `Cc1noc(-c2ccc(N3CC[C@H](C(=O)N4CCN(C(C)C)CC4)C3)cc2)n1` [Example E3, 1-(1-Methylethyl)-4-({(3S)-1-[4-(3-methyl-1,2,4-oxadiazol-5-yl)phenyl]-3-pyrrolidinyl}carbonyl)piperazine], the Ki is at most 0.316 nM.
As for `CC(=O)c1ccc(N2CC[C@H](C(=O)N3CCN(C(C)C)[C@@H](C)C3)C2)cc1` [Example E5, 1-[4-((3S)-3-{[(3S)-3-Methyl-4-(1-methylethyl)-1-piperazinyl]carbonyl}-1-pyrrolidinyl)phenyl]ethanone], the figure is at most 0.316 nM.
In the case of `Cc1noc(-c2ccc(N3CC[C@H](C(=O)N4CCN(C(C)C)[C@@H](C)C4)C3)cc2)n1` [Example E6, (2S)-2-Methyl-1-(1-methylethyl)-4-({(3S)-1-[4-(3-methyl-1,2,4-oxadiazol-5-yl)phenyl]-3-pyrrolidinyl}carbonyl)piperazine], the Ki was at most 0.316 nM.
With `CCC(CC)N1CCN(C(=O)[C@H]2CCN(c3ccc(C(C)=O)cc3)C2)CC1` [Example E8, 1-[4-((3S)-3-{[4-(1-Ethylpropyl)-1-piperazinyl]carbonyl}-1-pyrrolidinyl)phenyl]ethanone], the Ki is at most 0.316 nM.
For the compound `CCC(CC)N1CCN(C(=O)[C@H]2CCN(c3ccc(-c4nc(C)no4)cc3)C2)CC1` [Example E9, 1-(1-Ethylpropyl)-4-({(3S)-1-[4-(3-methyl-1,2,4-oxadiazol-5-yl)phenyl]-3-pyrrolidinyl}carbonyl)piperazine], the Ki is at most 0.316 nM.
As for `CC(=O)c1ccc(N2CC[C@H](C(=O)N3CCCN(CC4CC4)CC3)C2)cc1` [Example E10, 1-[4-((3S)-3-{[4-(Cyclopropylmethyl)hexahydro-1H-1,4-diazepin-1-yl]carbonyl}-1-pyrrolidinyl)phenyl]ethanone], the figure is at most 0.316 nM; as for `Cc1noc(-c2ccc(N3CC[C@H](C(=O)N4CCCN(CC5CC5)CC4)C3)cc2)n1` [Example E11, 1-(Cyclopropylmethyl)-4-({(3S)-1-[4-(3-methyl-1,2,4-oxadiazol-5-yl)phenyl]-3-pyrrolidinyl}carbonyl)hexahydro-1H-1,4-diazepine], at most 0.316 nM.
Regarding `O=C([C@H]1CCN(c2ccc(C(F)(F)F)nc2)C1)N1CCN(C2CCC2)CC1` [Example E12, 1-Cyclobutyl-4-({(3S)-1-[6-(trifluoromethyl)-3-pyridinyl]-3-pyrrolidinyl}carbonyl)piperazine], the Ki is at most 0.316 nM.
As for `Cc1noc(-c2ccc(N3CC[C@H](C(=O)N4CCN(C5CCC5)CC4)C3)cc2)n1` [Example E13, 1-Cyclobutyl-4-({(3S)-1-[4-(3-methyl-1,2,4-oxadiazol-5-yl)phenyl]-3-pyrrolidinyl}carbonyl)piperazine], the figure is at most 0.316 nM; as for `Cc1noc(-c2ccc(N3CC[C@H](C(=O)N4CCN(C(C)C)CC4)C3)cc2F)n1` [Example E24, 1-({(3S)-1-[3-Fluoro-4-(3-methyl-1,2,4-oxadiazol-5-yl)phenyl]-3-pyrrolidinyl}carbonyl)-4-(1-methylethyl)piperazine], at most 0.316 nM.
The value for `Cc1noc(-c2ccc(N3CC[C@H](C(=O)N4CCN(C(C)C)CC4)C3)c(F)c2)n1` [Example E25, 1-({(3S)-1-[2-Fluoro-4-(3-methyl-1,2,4-oxadiazol-5-yl)phenyl]-3-pyrrolidinyl}carbonyl)-4-(1-methylethyl)piperazine] was at most 0.316 nM; that for `CC(=O)c1ccc(N2CC[C@H](C(=O)N3CCCN(C(C)C)CC3)C2)cc1` [Example E27, 1-[4-((3S)-3-{[4-(1-Methylethyl)hexahydro-1H-1,4-diazepin-1-yl]carbonyl}-1-pyrrolidinyl)phenyl]ethanone] was at most 0.316 nM; that for `Cc1noc(-c2ccc(N3CC[C@H](C(=O)N4CCCN(C(C)C)CC4)C3)cc2)n1` [Example E28, 1-(1-Methylethyl)-4-({(3S)-1-[4-(3-methyl-1,2,4-oxadiazol-5-yl)phenyl]-3-pyrrolidinyl}carbonyl)hexahydro-1H-1,4-diazepine] was at most 0.316 nM.
The value for `Cc1noc(-c2ccc(N3CC[C@H](C(=O)N4CCCN(C(C)C)CC4)C3)cc2F)n1` [Example E29, 1-({(3S)-1-[3-Fluoro-4-(3-methyl-1,2,4-oxadiazol-5-yl)phenyl]-3-pyrrolidinyl}carbonyl)-4-(1-methylethyl)hexahydro-1H-1,4-diazepine hydrochloride] was at most 0.316 nM.
